Values of other authors, collected in patent US20080119444A1, “Methods and compositions for the treatment of cancer” (priority 2006, published 2008).

Legend:
HMG-CoA reductase = molecular target: T1, HMG-CoA reductase (Homo sapiens, UniProt P04035)
T1 sequence (P04035 1-888): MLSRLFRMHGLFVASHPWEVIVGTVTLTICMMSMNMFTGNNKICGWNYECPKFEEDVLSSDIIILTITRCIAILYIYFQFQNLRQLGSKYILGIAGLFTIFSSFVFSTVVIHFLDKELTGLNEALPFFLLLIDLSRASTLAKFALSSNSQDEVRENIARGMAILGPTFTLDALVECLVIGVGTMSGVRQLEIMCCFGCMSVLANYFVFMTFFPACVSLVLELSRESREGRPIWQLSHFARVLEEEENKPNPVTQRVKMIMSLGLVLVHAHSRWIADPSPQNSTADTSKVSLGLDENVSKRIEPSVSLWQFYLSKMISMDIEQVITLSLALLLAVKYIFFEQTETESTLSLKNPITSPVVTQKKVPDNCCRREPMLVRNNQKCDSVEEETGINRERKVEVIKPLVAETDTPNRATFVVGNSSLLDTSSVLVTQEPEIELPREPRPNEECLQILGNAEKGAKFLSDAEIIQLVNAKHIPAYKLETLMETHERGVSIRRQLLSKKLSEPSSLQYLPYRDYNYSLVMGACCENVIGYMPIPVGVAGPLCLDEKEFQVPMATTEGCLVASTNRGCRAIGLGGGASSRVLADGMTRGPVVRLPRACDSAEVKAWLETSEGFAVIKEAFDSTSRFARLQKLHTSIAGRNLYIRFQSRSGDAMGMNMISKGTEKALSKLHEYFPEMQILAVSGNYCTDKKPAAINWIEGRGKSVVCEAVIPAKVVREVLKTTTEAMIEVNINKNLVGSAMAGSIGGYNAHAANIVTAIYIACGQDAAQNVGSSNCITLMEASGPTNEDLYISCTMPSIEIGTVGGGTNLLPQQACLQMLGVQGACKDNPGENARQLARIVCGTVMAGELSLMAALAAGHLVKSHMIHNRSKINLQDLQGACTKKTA

[1] = ATAC trial
early breast cancer = settings: for contralateral breast cancers (events) / disease-free survival events / distant metastases (events) / time-to-recurrence events: median follow-up 68 months
[2] = exemestane vs tamoxifen
breast cancer = settings: for disease-free survival: after 2 to 3 years of tamoxifen: switch to exemestane or continue tamoxifen, total 5 years, median follow-up 30.6 months
[3] = tested on: endocrine-responsive breast cancer; settings: adjuvant letrozole compared with tamoxifen, postmenopausal women
[4] = in vivo
[5] = tamoxifen users
[6] = sequence tamoxifen then exemestane vs continued tamoxifen
[7] = 5 years of tamoxifen treatment, women with ER+ disease
[8] = at 15 years, ER+ (or ER unknown) tumors, 5 years of tamoxifen

Compound	potency relative to another statin (HMG-CoA reductase)	withdrawal rate for drug-related adverse events [1]	contralateral breast cancers (events) (early breast cancer)	disease-free survival events (early breast cancer)	distant metastases (events) (early breast cancer)	time-to-recurrence events (early breast cancer)	fracture rate compared to tamoxifen	disease-free survival (breast cancer)	further results
CC(C)c1c(C(=O)Nc2ccccc2)c(-c2ccccc2)c(-c2ccc(F)cc2)n1CC[C@@H](O)C[C@@H](O)CC(=O)O [Atorvastatin, atorvastatin]	approximately twice as potent as simvastatin	–	–	–	–	–	–	–	–
CC(C)(C#N)c1cc(Cn2cncn2)cc(C(C)(C)C#N)c1 [anastrozole]	–	5.1%	35	575 events	324	402	–	–	reduction of contralateral breast cancers (early breast cancer; anastrozole vs tamoxifen): 42%
C=C1C[C@@H]2[C@H](CC[C@]3(C)C(=O)CC[C@@H]23)[C@@]2(C)C=CC(=O)C=C12 [exemestane]	–	–	–	–	–	–	non-significant increase in fracture rate	91.5%	diarrhea [2]: 4.3%; bone loss during treatment (compared to placebo): minor bone loss; absolute difference in disease-free survival (breast cancer; [6]): 4.7%; disease-free survival HR (breast cancer; [6]): 0.68
N#Cc1ccc(C(c2ccc(C#N)cc2)n2cncn2)cc1 [letrozole]	–	–	–	–	–	–	significantly increase fracture rate	–	risk of recurrent disease [3]: reduced the risk of recurrent disease; fracture rate compared to placebo (compared to placebo): non-significant increase in fracture rate; grade 3, 4, or 5 cardiac events [4]: 2.1%; patients with hypercholesterolemia reported at least once during treatment [4]: 43.6%
CC(C)c1nc(N(C)S(C)(=O)=O)nc(-c2ccc(F)cc2)c1/C=C/[C@@H](O)C[C@@H](O)CC(=O)O [rosuvastatin]	more potent than atorvastatin	–	–	–	–	–	–	–	–
CC/C(=C(\c1ccccc1)c1ccc(OCCN(C)C)cc1)c1ccccc1 [tamoxifen]	–	7.2%	59	651 events	375	498	–	86.8%	reduction of annual rate of mortality (ER+ breast cancer; [7]): 34%; reduction of annual rate of recurrence (ER+ breast cancer; [7]): 41%; absolute reduction in mortality (ER+ breast cancer; [8]): 9.2%; absolute reduction in recurrence (ER+ breast cancer; [8]): 11.8%; 10-year risk of mortality from endometrial cancer [5]: 2 per 1000
